Assay results reported in ChEMBL document CHEMBL1136598, “Design, synthesis, and structure-activity relationships of unsubstituted piperazinone-based transition state factor Xa inhibitors” (Bioorg Med Chem Lett, 2003).
pIC50, pKi: −log10 of the molar value. The source made the active and inactive calls. The calls are words filed in the database; no cut-off is given here.

What was measured:
Coagulation factor X [1] = biological target: T1, Coagulation factor X (Homo sapiens, UniProt P00742); test: In vitro inhibitory activity against factor Xa
T1 sequence (P00742 41-179 limits assumed): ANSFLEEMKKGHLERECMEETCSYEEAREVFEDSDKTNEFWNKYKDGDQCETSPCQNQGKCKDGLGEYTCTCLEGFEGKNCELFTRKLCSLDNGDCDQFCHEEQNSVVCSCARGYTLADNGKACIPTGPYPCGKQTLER
T1 sequence (P00742 235-488 limits assumed): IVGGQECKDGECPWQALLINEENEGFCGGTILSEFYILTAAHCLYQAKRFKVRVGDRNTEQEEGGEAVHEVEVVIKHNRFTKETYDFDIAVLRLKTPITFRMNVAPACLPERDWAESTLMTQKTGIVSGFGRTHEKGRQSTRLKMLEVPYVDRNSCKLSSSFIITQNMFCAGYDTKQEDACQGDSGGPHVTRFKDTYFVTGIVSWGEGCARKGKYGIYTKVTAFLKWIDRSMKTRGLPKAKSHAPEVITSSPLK

Prothrombin = Prothrombin (Homo sapiens, UniProt P00734); test: In vitro inhibitory activity against serine protease thrombin
[2] = Half life period after intravenous administration in rat; format: ADME, organism-based; details: in vivo
[3] = biological target: Vitamin K-dependent protein C (Homo sapiens, UniProt P04070); test: Inhibitory activity against activated protein C (aPC)
Chain of Vitamin K-dependent protein C (P04070 43-197 limits assumed): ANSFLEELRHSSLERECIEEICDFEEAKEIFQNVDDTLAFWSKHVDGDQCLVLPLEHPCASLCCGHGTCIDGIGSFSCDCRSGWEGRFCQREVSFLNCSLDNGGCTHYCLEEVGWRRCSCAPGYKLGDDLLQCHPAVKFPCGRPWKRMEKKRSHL
Chain of Vitamin K-dependent protein C (P04070 212-461 limits assumed): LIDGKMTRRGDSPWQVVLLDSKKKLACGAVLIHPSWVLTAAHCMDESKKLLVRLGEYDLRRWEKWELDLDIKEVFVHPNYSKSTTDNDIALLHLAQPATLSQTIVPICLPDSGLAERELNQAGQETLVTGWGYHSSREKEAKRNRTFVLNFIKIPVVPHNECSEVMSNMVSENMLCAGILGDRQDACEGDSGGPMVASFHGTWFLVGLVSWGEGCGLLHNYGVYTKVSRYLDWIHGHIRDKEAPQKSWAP

Coagulation factor X [4] = biological target: T1, Coagulation factor X; test: (§1) In vitro binding affinity towards factor Xa
Plasminogen = Plasminogen (Homo sapiens, UniProt P00747); test: Inhibitory activity against Plasmin
Chain of Plasminogen (P00747 97-580 limits assumed): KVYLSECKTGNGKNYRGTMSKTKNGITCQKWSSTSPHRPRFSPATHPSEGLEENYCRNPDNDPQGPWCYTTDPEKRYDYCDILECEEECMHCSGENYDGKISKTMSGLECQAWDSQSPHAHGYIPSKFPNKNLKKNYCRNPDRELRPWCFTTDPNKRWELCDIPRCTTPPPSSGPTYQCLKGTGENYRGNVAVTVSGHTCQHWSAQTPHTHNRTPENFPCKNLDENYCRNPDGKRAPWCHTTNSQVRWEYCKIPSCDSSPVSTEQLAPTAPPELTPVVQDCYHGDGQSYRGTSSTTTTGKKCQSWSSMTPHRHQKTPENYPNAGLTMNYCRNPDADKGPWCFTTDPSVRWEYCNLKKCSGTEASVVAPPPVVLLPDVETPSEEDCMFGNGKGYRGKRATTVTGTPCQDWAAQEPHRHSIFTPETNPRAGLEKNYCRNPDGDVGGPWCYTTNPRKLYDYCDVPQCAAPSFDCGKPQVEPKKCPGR
Chain of Plasminogen (P00747 581-810 limits assumed): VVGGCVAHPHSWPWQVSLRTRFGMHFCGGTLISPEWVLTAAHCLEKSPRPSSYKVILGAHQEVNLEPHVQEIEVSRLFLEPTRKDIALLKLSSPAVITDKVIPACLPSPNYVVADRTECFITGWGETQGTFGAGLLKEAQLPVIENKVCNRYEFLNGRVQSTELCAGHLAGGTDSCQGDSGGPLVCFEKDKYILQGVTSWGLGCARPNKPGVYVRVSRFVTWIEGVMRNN

[5] = biological target: Tissue-type plasminogen activator (Homo sapiens, UniProt P00750); test: Inhibitory activity against tissue plasminogen activator (tissue plasminogen activator)
Chain of Tissue-type plasminogen activator (P00750 whole entry): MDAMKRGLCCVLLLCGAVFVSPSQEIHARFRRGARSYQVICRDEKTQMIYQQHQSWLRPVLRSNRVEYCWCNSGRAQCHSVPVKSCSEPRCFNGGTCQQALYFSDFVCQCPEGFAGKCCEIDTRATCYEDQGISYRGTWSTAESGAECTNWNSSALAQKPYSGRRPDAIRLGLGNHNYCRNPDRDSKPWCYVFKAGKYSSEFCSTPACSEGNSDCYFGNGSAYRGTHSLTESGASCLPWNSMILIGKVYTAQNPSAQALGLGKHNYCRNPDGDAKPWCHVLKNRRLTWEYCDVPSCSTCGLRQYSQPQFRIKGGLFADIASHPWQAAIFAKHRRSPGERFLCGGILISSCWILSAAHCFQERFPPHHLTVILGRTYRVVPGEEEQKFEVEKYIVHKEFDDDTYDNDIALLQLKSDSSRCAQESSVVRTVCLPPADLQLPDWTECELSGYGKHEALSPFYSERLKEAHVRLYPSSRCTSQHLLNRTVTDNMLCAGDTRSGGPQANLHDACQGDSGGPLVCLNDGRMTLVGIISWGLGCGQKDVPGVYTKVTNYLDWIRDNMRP

Serine protease 1 = Serine protease 1 (Homo sapiens, UniProt P07477); test: Inhibitory activity against Trypsin
Chain of Serine protease 1 (P07477 whole entry): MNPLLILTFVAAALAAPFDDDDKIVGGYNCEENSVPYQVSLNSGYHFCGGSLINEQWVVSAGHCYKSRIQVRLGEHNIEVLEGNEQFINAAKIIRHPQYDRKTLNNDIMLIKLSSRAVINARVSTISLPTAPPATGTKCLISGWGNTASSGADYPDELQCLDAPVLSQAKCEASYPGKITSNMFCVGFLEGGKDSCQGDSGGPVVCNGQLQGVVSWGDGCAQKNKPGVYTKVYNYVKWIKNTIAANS

Coagulation factor X [6] = biological target: T1, Coagulation factor X; test: In vitro binding affinity towards factor Xa; Not active
[7] = Inhibitory activity against Kallikrein
[8] = In vitro anticoagulant activity was measured by activated partial thromboplastin time (APTT) assay; format: functional
[9] = In vitro anticoagulant activity was measured by prothrombin time (PT) assay; format: functional
[10] = In vitro anticoagulant activity was measured by plasma based on thrombin generation (TG) assay; format: functional
Oryctolagus cuniculus [11] = species: Oryctolagus cuniculus; test: Plasma concentration required to inhibit thrombosis formation in rabbit; format: functional, organism-based
Oryctolagus cuniculus [12] = species: Oryctolagus cuniculus; test: Inhibition thrombosis formation in rabbit; format: functional
[13] = In vivo half life period after intravenous administration in rat; format: ADME, organism-based
Coagulation factor X [14] = biological target: T1, Coagulation factor X; test: as §1; remark: listed apart in the source
Oryctolagus cuniculus [15] = test: In vivo plasma concentration required to inhibit thrombosis formation in rabbit; format: functional, organism-based
Oryctolagus cuniculus [16] = test: In vivo inhibition thrombosis formation in rabbit; format: functional
[17] = In vitro anticoagulant activity was measured by plasma based thrombin generation (TG) assay; format: functional
Oryctolagus cuniculus [18] = test: In vivo inhibition of thrombosis formation in rabbit; format: functional

CC(=O)Nc1ccc(S(=O)(=O)N2CCN(CC(=O)NC(CCCNC(=N)N)C(=O)c3nccs3)C(=O)C2)cc1 (stereo not given)
pIC50 (Coagulation factor X [1]): 6.94
pIC50 (Prothrombin): 5.30

Cc1c(S(=O)(=O)N2CCN(CC(=O)NC(CCCNC(=N)N)C(=O)c3nccs3)C(=O)C2)sc2ccc(Cl)cc12 (stereo not given)
half-life [2]: 5 min
pIC50 [3]: 3.77
pKi (Coagulation factor X [4]): 9.77
pIC50 (Coagulation factor X [1]): 9.29
pIC50 (Plasminogen): 5.89
pIC50 [5]: 5.00
pIC50 (Serine protease 1): 7.70
pIC50 (Prothrombin): 6.12

N#Cc1c(Cl)cccc1Oc1ccc(S(=O)(=O)N2CCN(CC(=O)NC(CCCNC(=N)N)C(=O)c3nccs3)C(=O)C2)cc1 (stereo not given)
pIC50 (Coagulation factor X [1]): 7.42
pIC50 (Prothrombin): 5.40

N=C(N)NCCC[C@@H](NC(=O)CN1CCCC[C@H](NS(=O)(=O)Cc2ccccc2)C1=O)C(=O)c1nccs1
pIC50 (Prothrombin): 7.42

N=C(N)NCCC[C@@H](NC(=O)CN1CCCC(CCC2CCNCC2)C1=O)C(=O)c1nccs1 (stereo not given in full)
pIC50 (Coagulation factor X [1]): 7.19
pIC50 (Prothrombin): 4.92

N=C(N)NCCC[C@@H](NC(=O)Cn1cccc(NS(=O)(=O)Cc2ccccc2)c1=O)C(=O)c1nccs1
pIC50 (Prothrombin): 8.10

N=C(N)NCCCC(NC(=O)CN1CCN(S(=O)(=O)c2ccc(Br)cc2)CC1=O)C(=O)c1nccs1 (stereo not given)
pIC50 (Coagulation factor X [1]): 9.15
pIC50 (Prothrombin): 6.09

CS(=O)(=O)c1ccc(S(=O)(=O)N2CCN(CC(=O)NC(CCCN=C(N)N)C(=O)c3nccs3)C(=O)C2)cc1 (stereo not given)
pIC50 (Coagulation factor X [1]): 7.07
pIC50 (Prothrombin): 5.40

Cc1c(S(=O)(=O)N2CCN(CC(=O)NC(CCCN=C(N)N)C(=O)c3nccs3)C(=O)C2)sc2ccc(Cl)cc12 (stereo not given)
k_off (Coagulation factor X [6]): inactive
k_on (Coagulation factor X [6]): inactive
pIC50 [7]: 8.03
2x APTT [8]: 15.5 µM
2x PT [9]: 14.5 µM
2x TG [10]: 5.46 µM
Plasma concentration (Oryctolagus cuniculus [11]): 1.6 µM
Inhibition (Oryctolagus cuniculus [12]): 0%

N=C(N)NCCC[C@@H](NC(=O)CN1CCC[C@H](NS(=O)(=O)Cc2ccccc2)C1=O)C(=O)c1nccs1
pIC50 (Coagulation factor X [1]): 7.54
pIC50 (Prothrombin): 6.86

N=C(N)NCCCC(NC(=O)CN1CCN(S(=O)(=O)c2ccc(-c3ccccn3)s2)CC1=O)C(=O)c1nccs1 (stereo not given)
pIC50 (Coagulation factor X [1]): 8.40
pIC50 (Prothrombin): 5.40

N=C(N)NCCC[C@@H](NC(=O)CN1CCN(C(=O)Cc2ccccc2)CC1=O)C(=O)c1nccs1
pIC50 (Coagulation factor X [1]): 7.68
pIC50 (Prothrombin): 5.70

N=C(N)NCCCC(NC(=O)CN1CCN(S(=O)(=O)c2ccc3ccccc3c2)CC1=O)C(=O)c1nccs1 (stereo not given)
half-life [13]: 15 min
pIC50 [3]: < 3.74
k off (Coagulation factor X [14]): 0.132 s⁻¹
k on (Coagulation factor X [14]): 6.3e+06 M⁻¹ s⁻¹
pKi (Coagulation factor X [4]): 8.57
pIC50 (Coagulation factor X [1]): 8.10
pIC50 [7]: 6.41
pIC50 (Plasminogen): 5.16
2x APTT [8]: 13.5 µM
2x PT [9]: 14.5 µM
2x TG [10]: inactive
Plasma concentration (Oryctolagus cuniculus [15]): 0.8 µM
Inhibition (Oryctolagus cuniculus [16]): 0%
pIC50 [5]: 5.73
pIC50 (Serine protease 1): 7.41
pIC50 (Prothrombin): 5.22

N=C(N)NCCCC(NC(=O)CN1CCN(S(=O)(=O)/C=C/c2ccccc2)CC1=O)C(=O)c1nccs1 (stereo not given)
pIC50 (Coagulation factor X [1]): 7.89
pIC50 (Prothrombin): 5.15

N=C(N)NCCCC(NC(=O)CN1CCN(S(=O)(=O)c2ccc(NO)cc2)CC1=O)C(=O)c1nccs1 (stereo not given)
pIC50 (Coagulation factor X [1]): 8.00
pIC50 (Prothrombin): 5.15

N=C(N)NCCC[C@@H](NC(=O)CN1CCN(S(=O)(=O)Cc2ccccc2)CC1=O)C(=O)c1nccs1
half-life [13]: 10 min
pIC50 [3]: < 3.74
k off (Coagulation factor X [14]): 0.013 s⁻¹
k on (Coagulation factor X [14]): 2.3e+06 M⁻¹ s⁻¹
pKi (Coagulation factor X [4]): 8.85
pIC50 (Coagulation factor X [1]): 8.40
pIC50 [7]: 6.17
pIC50 (Plasminogen): 4.92
2x APTT [8]: 2.8 µM
2x PT [9]: 11.7 µM
2x TG [17]: inactive
Plasma concentration (Oryctolagus cuniculus [15]): 0.4 µM
Inhibition (Oryctolagus cuniculus [18]): 35%
pIC50 [5]: 5.40
pIC50 (Serine protease 1): 7.48
pIC50 (Prothrombin): 6.41

N=C(N)NCCCC(NC(=O)CN1CCN(S(=O)(=O)c2cccc3ccccc23)CC1=O)C(=O)c1nccs1 (stereo not given)
pIC50 (Coagulation factor X [1]): 8.70
pIC50 (Prothrombin): 6.93

N=C(N)NCCCC(NC(=O)CN1CCN(S(=O)(=O)c2cccc3nonc23)CC1=O)C(=O)c1nccs1 (stereo not given)
pIC50 (Coagulation factor X [1]): 8.70
pIC50 (Prothrombin): 6.14

N=C(N)NCCCC(NC(=O)CN1CCN(S(=O)(=O)c2cccc3c(Cl)cccc23)CC1=O)C(=O)c1nccs1 (stereo not given)
pIC50 (Coagulation factor X [1]): 9.21
pIC50 (Prothrombin): 6.73

N=C(N)NCCCC(NC(=O)CN1CCN(S(=O)(=O)c2ccc(F)cc2)CC1=O)C(=O)c1nccs1 (stereo not given)
pIC50 (Coagulation factor X [1]): 8.70
pIC50 (Prothrombin): 6.12

N=C(N)NCCC[C@@H](NS(=O)(=O)Cc1ccccc1)C(=O)NCC(=O)N[C@H](CCCNC(=N)N)C(=O)c1nccs1
half-life [13]: 24 min
pIC50 [3]: 5.22
k on (Coagulation factor X [14]): 6.5e+06 M⁻¹ s⁻¹
pIC50 [7]: 7.57
pIC50 (Plasminogen): 6.51
2x APTT [8]: 0.5 µM
2x PT [9]: 6.8 µM
2x TG [10]: 0.18 µM
Plasma concentration (Oryctolagus cuniculus [15]): 0.07 µM
Inhibition (Oryctolagus cuniculus [16]): 100%
pIC50 [5]: 6.48
pIC50 (Serine protease 1): 9.10
pIC50 (Prothrombin): 5.00

N=C(N)NCCC[C@@H](NC(=O)CN1CCN(S(=O)(=O)Cc2ccccc2)CCC1=O)C(=O)c1nccs1
pIC50 (Coagulation factor X [1]): 8.30
pIC50 (Prothrombin): 5.70

N=C(N)NCCC[C@@H](NC(=O)CNC(=O)[C@H](Cc1c[nH]c2ccccc12)NS(=O)(=O)Cc1ccccc1)C(=O)c1nccs1
pIC50 (Coagulation factor X [1]): 8.70
pIC50 (Prothrombin): 6.06
